Reference: patent US11109593B2, “Isoxazolin-5-one derivative and herbicide containing same as active ingredient” (HOKKO CHEMICAL INDUSTRY CO., LTD., priority 2017, dated 2021)

Tests used:
Type in all cases: in vivo
Amaranthus viridis [1] = experiment: Test Example 4: herbicidal effect test by treatment of leave and stem in dry field farming (seven days after seeding); settings: 120 g/10a active ingredient, emulsion sprayed seven days after seeding, evaluated 14 days after treatment
Procedure: (§1) This test was conducted in a double system per one agent solution concentration area, and the herbicidal rates (%) were determined by the following equation (Math. 1) on 14 days after the treatment with the agents. Herbicidal Rate (%)={1-(Average Dry Weight (g) of Plant of Treated Area)/(Average Dry Weight (g) of Plant of Untreated Area)}×100 [Math. 1]
(§2) Herbicidal Effect Test by Treatment of Leave and Stem in Dry Field Farming
(§3) Pots with a size of 36 cm^2 were filled with a dry field farming soil (alluvium). The soil of the top layer of 1 cm and seeds of weeds, namely southern crabgrass, Echinochloa crus-galli, Chenopodium album and Amaranthus viridis, 20 seeds each, were evenly mixed, and the top layer was gently pressed. Emulsions prepared using the compounds in Table 6 below according to Formulation Example 5 were diluted with water seven days after seeding, and the water-diluted agent solutions were sprayed to the soil surfaces at a ratio of 100 liters per 10 ares. The converted amount of the applied active ingredient corresponded to 120 g per 10 ares. The herbicidal effects were evaluated by the same standard as that in Test Example 1 on 14 days after the treatment with the agents. […] The compound numbers in Table 6 are the same as those in Table 1 and Table 2 above.

southern crabgrass [2] = experiment: as above; settings: 120 g/10a active ingredient, emulsion sprayed seven days after seeding, evaluated 14 days after treatment
Procedure: as §1, §2, §3

Chenopodium album [3] = experiment: as above; settings: 120 g/10a active ingredient, emulsion sprayed seven days after seeding, evaluated 14 days after treatment
Procedure: as §1, §2, §3

Echinochloa crus-galli [4] = experiment: as above; settings: 120 g/10a active ingredient, emulsion sprayed seven days after seeding, evaluated 14 days after treatment
Procedure: as §1, §2, §3

Scirpus juncoides [5] = experiment: Test Example 2: herbicidal effect test by treatment during growing period in paddy rice cultivation (seven days after seeding); settings: 120 g/10a active ingredient, assessed 14 days after treatment, dry weight vs untreated area
Summary of the method: (§4)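 Herbicidal rate = (1 − treated/untreated mean dry weight) × 100, scored 14 days after application, two replicates per rate. Treatment: diluted emulsion dropped onto paddy water seven days after sowing, 120 g active ingredient per 10 ares, in a glass greenhouse.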

[6] = test system: broad leaf weeds (Lindernia pyxidaria and Monochoria vaginalis); experiment: as above; settings: 120 g/10a active ingredient, assessed 14 days after treatment, dry weight vs untreated area; for pest or weed control at 1200 g/ha: 336 h
Summary of the method: as §4

Echinochloa crus-galli [7] = experiment: as above; settings: 120 g/10a active ingredient, assessed 14 days after treatment, dry weight vs untreated area
Summary of the method: as §4

Scirpus juncoides [8] = experiment: Test Example 1: herbicidal effect test by treatment of rice paddy soil (immediately after seeding); settings: 120 g/10a active ingredient, dry weight vs untreated area, 14 days after treatment
Summary of the method: (§5)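 Applied at 120 g a.i./10 ares as diluted emulsion dropped into flooded (~3 cm) paddy soil pots right after sowing seeds 0–1 cm deep; greenhouse, two replicates. At day 14, dry weight of treated versus untreated plants gives % herbicidal rate.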

[9] = test system: broad leaf weeds (Lindernia pyxidaria and Monochoria vaginalis); experiment: as above; settings: 120 g/10a active ingredient, dry weight vs untreated area, 14 days after treatment; for pest or weed control at 1200 g/ha: 336 h
Summary of the method: as §5

Echinochloa crus-galli [10] = experiment: as above; settings: 120 g/10a active ingredient, dry weight vs untreated area, 14 days after treatment
Summary of the method: as §5

Amaranthus viridis [11] = experiment: Test Example 3: herbicidal effect test by treatment of dry field farming soil (one day after seeding); settings: 120 g/10a active ingredient, evaluated 14 days after treatment
Summary of the method: (§6)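 Seeds (20 each) mixed into top 1 cm of alluvium in pots, surface pressed. One day later, diluted emulsion sprayed onto soil, 100 L/10 a, 120 g a.i./10 a. Dry weight at 14 d vs untreated gave % herbicidal rate; n=2.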

southern crabgrass [12] = experiment: as above; settings: 120 g/10a active ingredient, evaluated 14 days after treatment
Summary of the method: as §6

Chenopodium album [13] = experiment: as above; settings: 120 g/10a active ingredient, evaluated 14 days after treatment
Summary of the method: as §6

Echinochloa crus-galli [14] = experiment: as above; settings: 120 g/10a active ingredient, evaluated 14 days after treatment
Summary of the method: as §6

With `Cc1c(Cc2ccccc2NS(=O)(=O)C(F)(F)F)c(=O)on1CC1CCCO1` (centres unmarked) [Compound 1-230] the “herbicidal effect (herbicidal rate), Amaranthus viridis” value (“herbicidal effect … Amaranthus viridis” below) (Amaranthus viridis [1]) was 40%, the “herbicidal effect (herbicidal rate), southern crabgrass” value (from here on “herbicidal effect … southern crabgrass”) (southern crabgrass [2]) was 80% and the “herbicidal effect (herbicidal rate), Chenopodium album” value (shortened to “herbicidal effect … Chenopodium album”) (Chenopodium album [3]) was 40%. For the same molecule, the “herbicidal effect (herbicidal rate), Echinochloa crus-galli” value (Echinochloa crus-galli [4]) was 80%, the “Herbicidal rate (%) Scirpus juncoides” value (Scirpus juncoides [5]) was 90% and the “Herbicidal rate (%) Lindernia pyxidaria” value ([6]; Lindernia pyxidaria) was 70%. The “Herbicidal rate (%) Monochoria vaginalis” value ([6]; Monochoria vaginalis) was 90%, the “Herbicidal rate (%) Echinochloa crus-galli” value (Echinochloa crus-galli [7]) was 90% and the “Herbicidal rate (%) Scirpus juncoides” value (Scirpus juncoides [8]) was 90%. The “Herbicidal rate (%) Lindernia pyxidaria” value ([9]; Lindernia pyxidaria) was 100%, the “Herbicidal rate (%) Monochoria vaginalis” value ([9]; Monochoria vaginalis) was 80% and the “Herbicidal rate (%) Echinochloa crus-galli” value (Echinochloa crus-galli [10]) was 100%. For the same molecule, the “herbicidal rate, Amaranthus viridis” value (Amaranthus viridis [11]) was 60%, the “herbicidal rate, southern crabgrass” value (southern crabgrass [12]) was 100% and the “herbicidal rate, Chenopodium album” value (Chenopodium album [13]) was 60%. The “herbicidal rate, Echinochloa crus-galli” value (Echinochloa crus-galli [14]) was 100%.
`CCCCC(c1ccccc1)n1oc(=O)c(Cc2ccccc2N(S(=O)(=O)C(F)(F)F)S(=O)(=O)C(F)(F)F)c1C` (centres unmarked) [Compound 1-1041] was tested, and the “herbicidal effect … Amaranthus viridis” value (Amaranthus viridis [1]) was 60%, the “herbicidal effect … southern crabgrass” value (southern crabgrass [2]) was 50% and the “herbicidal effect … Chenopodium album” value (Chenopodium album [3]) was 40%. The “herbicidal effect (herbicidal rate), Echinochloa crus-galli” value (Echinochloa crus-galli [4]) was 40%, the “Herbicidal rate (%) Scirpus juncoides” value (Scirpus juncoides [5]) was 70% and the “Herbicidal rate (%) Lindernia pyxidaria” value ([6]; Lindernia pyxidaria) was 70%. For the same molecule, the “Herbicidal rate (%) Monochoria vaginalis” value ([6]; Monochoria vaginalis) was 70%, the “Herbicidal rate (%) Echinochloa crus-galli” value (Echinochloa crus-galli [7]) was 90% and the “Herbicidal rate (%) Scirpus juncoides” value (Scirpus juncoides [8]) was 90%. For the same molecule, the “Herbicidal rate (%) Lindernia pyxidaria” value ([9]; Lindernia pyxidaria) was 90%, the “Herbicidal rate (%) Monochoria vaginalis” value ([9]; Monochoria vaginalis) was 90% and the “Herbicidal rate (%) Echinochloa crus-galli” value (Echinochloa crus-galli [10]) was 100%. For the same molecule, the “herbicidal rate, Amaranthus viridis” value (Amaranthus viridis [11]) was 50%, the “herbicidal rate, southern crabgrass” value (southern crabgrass [12]) was 80% and the “herbicidal rate, Chenopodium album” value (Chenopodium album [13]) was 50%. For the same molecule, the “herbicidal rate, Echinochloa crus-galli” value (Echinochloa crus-galli [14]) was 70%.
`CC(=O)N(c1ccccc1Cc1c(C)n(CC(C)C)oc1=O)S(=O)(=O)C(F)(F)F` [Compound 1-297, N-[2-[(2-isobutyl-3-methyl-5-oxoisoxazol-4-yl)methyl]phenyl]-N-(trifluoromethylsulfonyl)acetamide] gave a pest or weed control at 1200 g/ha (Amaranthus viridis [1]; Amaranthus viridis, 336 h, read-out: herbicidal effect (herbicidal rate), Amaranthus viridis) of 40%, a pest or weed control at 1200 g/ha (southern crabgrass [2]; Digitaria ciliaris, 336 h, read-out: herbicidal effect (herbicidal rate), southern crabgrass) of 60% and a pest or weed control at 1200 g/ha (Chenopodium album [3]; Chenopodium album, 336 h, read-out: herbicidal effect (herbicidal rate), Chenopodium album) of 40%. For the same molecule, the pest or weed control at 1200 g/ha (Echinochloa crus-galli [4]; Echinochloa crus-galli, 336 h, read-out: herbicidal effect (herbicidal rate), Echinochloa crus-galli) was 80%, the pest or weed control at 1200 g/ha (Scirpus juncoides [5]; Schoenoplectiella juncoides, 336 h, read-out: herbicidal rate (%) Scirpus juncoides) was 90% and the pest or weed control at 1200 g/ha ([6]; Lindernia pyxidaria, read-out: herbicidal rate (%) Lindernia pyxidaria) was 100%. For the same molecule, the pest or weed control at 1200 g/ha ([6]; Monochoria vaginalis, read-out: herbicidal rate (%) Monochoria vaginalis) was 90%, the pest or weed control at 1200 g/ha (Echinochloa crus-galli [7]; Echinochloa crus-galli, 336 h, read-out: herbicidal rate (%) Echinochloa crus-galli) was 100% and the pest or weed control at 1200 g/ha (Scirpus juncoides [8]; in Schoenoplectiella juncoides, 336 h, read-out: Herbicidal rate (%) Scirpus juncoides) was 100%. The pest or weed control at 1200 g/ha ([9]; Monochoria vaginalis, read-out: Herbicidal rate (%) Monochoria vaginalis) was 100%, the pest or weed control at 1200 g/ha ([9]; in Lindernia, Lindernia pyxidaria, read-out: Herbicidal rate (%) Lindernia pyxidaria) was 100% and the pest or weed control at 1200 g/ha (Echinochloa crus-galli [10]; in Echinochloa crus-galli, 336 h, read-out: Herbicidal rate (%) Echinochloa crus-galli) was 100%. It also gave a pest or weed control at 1200 g/ha (Amaranthus viridis [11]; Amaranthus viridis, 336 h, read-out: herbicidal rate, Amaranthus viridis) of 90%, a pest or weed control at 1200 g/ha (southern crabgrass [12]; Digitaria ciliaris, 336 h, read-out: herbicidal rate, southern crabgrass) of 90% and a pest or weed control at 1200 g/ha (Chenopodium album [13]; Chenopodium album, 336 h, read-out: herbicidal rate, Chenopodium album) of 90%. It also gave a pest or weed control at 1200 g/ha (Echinochloa crus-galli [14]; Echinochloa crus-galli, 336 h, read-out: herbicidal rate, Echinochloa crus-galli) of 100%.
In the case of `CCN(CC)C(=O)n1oc(=O)c(Cc2ccccc2NS(=O)(=O)C(F)(F)F)c1C` [Compound 1-248], the “herbicidal effect … Amaranthus viridis” value (Amaranthus viridis [1]) is reported as 40%, the “herbicidal effect … southern crabgrass” value (southern crabgrass [2]) is reported as 40% and the “herbicidal effect … Chenopodium album” value (Chenopodium album [3]) is reported as 0%. The “herbicidal effect (herbicidal rate), Echinochloa crus-galli” value (Echinochloa crus-galli [4]) was 80%, the “Herbicidal rate (%) Scirpus juncoides” value (Scirpus juncoides [5]) was 90% and the “Herbicidal rate (%) Lindernia pyxidaria” value ([6]; Lindernia pyxidaria) was 90%. The “Herbicidal rate (%) Monochoria vaginalis” value ([6]; Monochoria vaginalis) was 90%, the “Herbicidal rate (%) Echinochloa crus-galli” value (Echinochloa crus-galli [7]) was 40% and the “Herbicidal rate (%) Scirpus juncoides” value (Scirpus juncoides [8]) was 50%. The “Herbicidal rate (%) Lindernia pyxidaria” value ([9]; Lindernia pyxidaria) was 90%, the “Herbicidal rate (%) Monochoria vaginalis” value ([9]; Monochoria vaginalis) was 80% and the “Herbicidal rate (%) Echinochloa crus-galli” value (Echinochloa crus-galli [10]) was 60%. The “herbicidal rate, Amaranthus viridis” value (Amaranthus viridis [11]) was 50%, the “herbicidal rate, southern crabgrass” value (southern crabgrass [12]) was 80% and the “herbicidal rate, Chenopodium album” value (Chenopodium album [13]) was 60%. For the same molecule, the “herbicidal rate, Echinochloa crus-galli” value (Echinochloa crus-galli [14]) was 70%.
In the case of `CSCCn1oc(=O)c(Cc2ccccc2N(C(=O)OC(C)C)S(=O)(=O)C(F)(F)F)c1C` [Compound 1-652], the “herbicidal effect … Amaranthus viridis” value (Amaranthus viridis [1]) is reported as 40%, the “herbicidal effect … southern crabgrass” value (southern crabgrass [2]) is reported as 90% and the “herbicidal effect … Chenopodium album” value (Chenopodium album [3]) is reported as 40%. The “herbicidal effect (herbicidal rate), Echinochloa crus-galli” value (Echinochloa crus-galli [4]) was 90%, the “Herbicidal rate (%) Scirpus juncoides” value (Scirpus juncoides [5]) was 90% and the “Herbicidal rate (%) Lindernia pyxidaria” value ([6]; Lindernia pyxidaria) was 90%. For the same molecule, the “Herbicidal rate (%) Monochoria vaginalis” value ([6]; Monochoria vaginalis) was 90%, the “Herbicidal rate (%) Echinochloa crus-galli” value (Echinochloa crus-galli [7]) was 90% and the “Herbicidal rate (%) Scirpus juncoides” value (Scirpus juncoides [8]) was 90%. For the same molecule, the “Herbicidal rate (%) Lindernia pyxidaria” value ([9]; Lindernia pyxidaria) was 90%, the “Herbicidal rate (%) Monochoria vaginalis” value ([9]; Monochoria vaginalis) was 90% and the “Herbicidal rate (%) Echinochloa crus-galli” value (Echinochloa crus-galli [10]) was 90%. The “herbicidal rate, Amaranthus viridis” value (Amaranthus viridis [11]) was 90%, the “herbicidal rate, southern crabgrass” value (southern crabgrass [12]) was 90% and the “herbicidal rate, Chenopodium album” value (Chenopodium album [13]) was 90%. For the same molecule, the “herbicidal rate, Echinochloa crus-galli” value (Echinochloa crus-galli [14]) was 90%.
